Laboratory results: US20240139333A1, “2,6-DICHLOROPHENYL ESTER COMPOUNDS AND USE THEREOF” (Fusion Pharmaceuticals Inc., priority 2021, published 2024)

What was measured:
[1] = Comparative active ester reactivity study with HOPO nucleophile; conditions: 1,2-HOPO 1 eq., 22±2° C.
Protocol: (§1) General Experimental Protocol for Comparative Active Ester Reactivity Study with HOPO or HOA Nucleophiles
(§2) To a 4 mL scintillation vial containing Compound A-E (in respective experiments; 1 eq.) was added a stir bar followed by 150 μL of HPLC grade acetonitrile. In another 4 mL scintillation vial containing a respective nucleophile (1 eq.) was added 280 μL HPLC grade water. The solutions were combined and allowed to stir at room temperature (22±2° C.) for 4 hours. Timed aliquots at time (T)=15, 30, 60, 120 and 240 minutes were taken and analyzed by HPLC-MS using elution method 1 (Table 1).

[2] = Comparative active ester reactivity study with HOA nucleophile (N-hydroxy-N-methylbenzamide); conditions: N-Hydroxy-N-methylbenzamide 1 eq., 22±2° C.
Protocol: as §1, §2

[3] = Comparative active ester reactivity study with HOA nucleophile (benzhydroxamic acid); conditions: Benzhydroxamic Acid 1 eq., 22±2° C.
Protocol: as §1, §2

[4] = Nucleophilic reactivity study with L-Lysine; conditions: L-Lysine 5 equiv, 15 min, 22±2° C.
Protocol: General Experimental Protocol for Nucleophilic Reactivity Study with L-Lysine
To a 4 mL scintillation vial containing Compound A-E (in respective experiments; 1 eq.) was added a stir bar followed by 70 μL of HPLC grade acetonitrile. In another 4 mL scintillation vial containing L-Lysine monohydrochloride (5 eq.) was added 130 μL HPLC grade water followed by diisopropylethylamine (5 eq.). The solutions were combined and allowed to stir at room temperature (22±2° C.). Timed aliquots at time (T)=15, 30, 60 and 120 minutes were taken and analyzed by HPLC-MS using elution method 1 (Table 2).

[5] = DMSO stability study; assay type: physicochemical
Protocol: To a 4 mL scintillation vial containing Compound A-E (in respective experiments; 4 mg) was added a stir bar followed by 500 μL of anhydrous dimethyl sulfoxide and was allowed to stir at room temperature (22±2° C.) for 4 hours. Timed aliquots at time (T)=15, 30, 60, 120 and 240 minutes were taken, dissolved in water to achieve 2% DMSO composition and analyzed by HPLC-MS using elution method 1 (Table 5).

[6] = pH stability study; assay type: physicochemical; conditions: 20° C.
Protocol: To a 4 mL scintillation vial containing Compound A-E (in respective experiments; 0.8 mg) was added 4 mL of either a pH 3, pH 5 pH 7 or pH 9 buffer to create a 0.2 mg/mL solution. 2 mL of this solution was added to a 2 mL HPLC vial and placed in the auto sampler of an HPLC-MS at 20° C. Timed aliquots at time (T)=15, 30, 60, 120, 240 and 480 minutes were taken and analyzed by HPLC-MS using elution method 1 (Table 3). […]
pH 3 Buffer: Citric acid/Na2HPO4 (79.45 mL 0.1 M-citric acid and 20.55 mL 0.2-Na2HPO4) pH 5 Buffer: Citric acid/Na2HPO4 (48.50 mL 0.1 M-citric acid and 51.50 mL 0.2-Na2HPO4) pH 7 Buffer: Citric acid/Na2HPO4 (17.65 mL 0.1 M-citric acid and 82.35 mL 0.2-Na2HPO4) pH 9 Buffer: Sodium Carbonate/Sodium Bicarbonate (10 mL 0.1 M-Na2CO3 and 90 mL 0.1-NaHCO3)

[7] = Temperature stability study in H2O; assay type: physicochemical
Protocol: 20° C.: To a 4 mL scintillation vial containing Compound A-E (in respective experiments; 0.8 mg) was added 4 mL of HPLC grade water to create a 0.2 mg/mL solution. 2 mL of this solution was added to a 2 mL HPLC vial and placed in the auto sampler of an HPLC-MS at 20° C. Timed aliquots at time (T)=15, 30, 60, 120, 240 and 480 minutes were taken and analyzed by HPLC-MS using elution method 1 (Table 4).
50° C.: To a 4 mL scintillation vial containing Compound A-E (in respective experiments; 0.8 mg) was added a stir bar followed by 4 mL of HPLC grade water to create a 0.2 mg/mL solution. The vial was capped and allowed to stir in a 50° C. oil bath for 8 hours. Timed aliquots at time (T) =15, 30, 60, 120, 240 and 480 minutes were taken and analyzed by HPLC-MS using elution method 1 (Table 4).

[8] = Stability of Compound J at pH = 2; assay type: physicochemical; conditions: pH 2, 20° C.
Protocol: To an HPLC vial was added a 0.2 mg/mL solution of Compound J dissolved in H2O (0.1% v/v TFA) at pH=2 and the stability was monitored by HPLC-MS at 20° C. over 16 hours. Timed aliquots at time (T)=0, 30, 60, 120, 180, 240, 480 and 960 minutes were taken and analyzed by HPLC-MS using elution method 4 at 214 nm (Table 9).

O=C(CCc1cccnc1)ON1C(=O)CCC1=O [Compound E, 2,5-Dioxo-1-pyrrolidinyl 3-pyridinepropanoate]
% Active Ester Remaining ([1]; 15 min): 15.47%
% Active Ester Remaining ([1]; 30 min): 12.28%
% Active Ester Remaining ([1]; 60 min): 11.06%
% Active Ester Remaining ([1]; 120 min): 7.15%
% Active Ester Remaining ([1]; 240 min): 3.69%
% Active Ester Remaining ([2]; 15 min): 32.07%
% Active Ester Remaining ([2]; 30 min): 20.77%
% Active Ester Remaining ([2]; 60 min): 11.58%
% Active Ester Remaining ([2]; 120 min): 6.52%
% Active Ester Remaining ([2]; 240 min): 4.21%
% Active Ester Remaining ([3]; 15 min): 1.13%
% Active Ester Remaining ([3]; 30 min): 0.85%
% Active Ester Remaining ([3]; 60 min): 0.67%
% Active Ester Remaining ([3]; 120 min): 0.49%
% Active Ester Remaining ([3]; 240 min): 0.35%
% Active Ester Remaining [4]: 0%
% Active Ester Remaining in DMSO at 22 ± 2° C. ([5]; 15 min): 97.29%
% Active Ester Remaining in DMSO at 22 ± 2° C. ([5]; 30 min): 97.13%
% Active Ester Remaining in DMSO at 22 ± 2° C. ([5]; 60 min): 96.83%
% Active Ester Remaining in DMSO at 22 ± 2° C. ([5]; 120 min): 94.53%
% Active Ester Remaining in DMSO at 22 ± 2° C. ([5]; 240 min): 91.57%
% Remaining ([6]; pH 3 buffer, 15 min): 80.40%
% Remaining ([6]; pH 3 buffer, 30 min): 59.68%
% Remaining ([6]; pH 3 buffer, 60 min): 44.51%
% Remaining ([6]; pH 3 buffer, 120 min): 26.16%
% Remaining ([6]; pH 3 buffer, 240 min): 8.98%
% Remaining ([6]; pH 3 buffer, 480 min): 1.00%
% Remaining ([6]; pH 5 buffer, 15 min): 85.59%
% Remaining ([6]; pH 5 buffer, 30 min): 52.98%
% Remaining ([6]; pH 5 buffer, 60 min): 33.12%
% Remaining ([6]; pH 5 buffer, 120 min): 13.81%
% Remaining ([6]; pH 5 buffer, 240 min): 2.33%
% Remaining ([6]; pH 5 buffer, 480 min): 0%
% Remaining ([6]; pH 7 buffer, 15 min): 86.24%
% Remaining ([6]; pH 7 buffer, 30 min): 44.91%
% Remaining ([6]; pH 7 buffer, 60 min): 19.80%
% Remaining ([6]; pH 7 buffer, 120 min): 4.02%
% Remaining ([6]; pH 7 buffer, 240 min): 0%
% Remaining ([6]; pH 9 buffer, 15 min): 6.98%
% Remaining ([6]; pH 9 buffer, 30 min): 1.20%
% Remaining ([6]; pH 9 buffer, 60 min): 0.74%
% Remaining ([6]; pH 9 buffer, 120 min): 0%
% Remaining ([7]; 20° C., 15 min): 87.24%
% Remaining ([7]; 20° C., 30 min): 78.45%
% Remaining ([7]; 20° C., 60 min): 70.03%
% Remaining ([7]; 20° C., 120 min): 54.46%
% Remaining ([7]; 20° C., 240 min): 24.99%
% Remaining ([7]; 20° C., 480 min): 4.50%
% Remaining ([7]; 50° C., 15 min): 72.20%
% Remaining ([7]; 50° C., 30 min): 47.31%
% Remaining ([7]; 50° C., 60 min): 20.75%
% Remaining ([7]; 50° C., 120 min): 3.50%
% Remaining ([7]; 50° C., 240 min): 0.10%
% Remaining ([7]; 50° C., 480 min): 0%

CC(=O)N(O)CCCCCNC(=O)CCC(=O)N(O)CCCCCNC(=O)CCC(=O)N(O)CCCCCNC(=O)CCOCCOCCOCCOCCOCCOCCOCCOCCOCCOCCOCCOCCC(=O)Oc1c(Cl)cccc1Cl [Compound J, 2,6-Dichlorophenyl 1-{[5-(N-hydroxy-3-{8 5-(N-hydroxy-3-{[5-(N-hydroxyacetamido)pentyl]carbamoyl}propanamido)pentyl]carbamoyl}propanamido)pentylic carbamoyl}-3,6,9,12,15,18,21,24,27,30,33,36-dodecaoxanonatriacontan-39-oate]
% Compound J Remaining ([8]; 0 min): 97.49%
% Compound J Remaining ([8]; 30 min): 97.21%
% Compound J Remaining ([8]; 60 min): 96.67%
% Compound J Remaining ([8]; 120 min): 96.11%
% Compound J Remaining ([8]; 180 min): 96.14%
% Compound J Remaining ([8]; 240 min): 94.83%
% Compound J Remaining ([8]; 480 min): 94.39%
% Compound J Remaining ([8]; 960 min): 91.48%
